Key:
Experiment in all cases: biochemical
Set-up in all cases: KINOMEscan scanMAX active site-directed competition binding assay, percent of control, 468 kinases
Settings in all cases: competition binding, percent of control
PIK3CA(E545K) = PIK3CA(E545K) (Homo sapiens, UniProt P42336, E545K)
Protocol: (§1) The KINOMEscan^TM screening platform (scanMAX assay) employs a proprietary active site-directed competition binding assay that quantitatively measures the interactions between test compounds (here 100 μM S-carvone) and 468 human protein kinases. The assay was performed at Eurofins DiscoverX Corp. (Fremont, CA, USA). Blocking protein kinase C (PKC) activity was reported to inhibit the transcription of CYP1A1 but to exert no effect on the nuclear translocation of AhR[26], which was also the case here with carvones. Therefore, we tested whether carvones inhibit PKC catalytic activity. […] We also evaluated the interaction between 100 μM S-carvone and 468 human protein kinases, employing KINOMEscan^TM (scanMAX assay), a proprietary active site-directed competition binding assay. The minimal inhibitory threshold used by the screening platform KINOMEscan^TM is 35% of the control kinase activity. Among 468 kinases tested, 467 were above the 35% cutoff. Tyrosine kinase 2 TK2 (JH2 domain pseudokinase) activity was inhibited to 27% of the control activity, but this kinase is not relevant to the regulation of transcription activity (Fig. 5B; Figure S9). Overall, we excluded the possibility that the effects of carvones on AhR signaling are caused indirectly by the inhibition of the human kinome, particularly PKC.

MAPKAPK2 = MAPKAPK2 (Homo sapiens, UniProt P49137)
Protocol: as §1

CLK1 = CLK1 (Homo sapiens, UniProt P49759)
Protocol: as §1

DRAK2 = biological target: T1, DRAK2 (Homo sapiens, UniProt O94768)
T1 construct: gene STK17B
Protocol: as §1

ASK2 = biological target: T2, ASK2 (Homo sapiens, UniProt O95382)
T2 construct: gene MAP3K6
Protocol: as §1

PLK4 = PLK4 (Homo sapiens, UniProt O00444)
Chain of PLK4 (O00444 whole entry): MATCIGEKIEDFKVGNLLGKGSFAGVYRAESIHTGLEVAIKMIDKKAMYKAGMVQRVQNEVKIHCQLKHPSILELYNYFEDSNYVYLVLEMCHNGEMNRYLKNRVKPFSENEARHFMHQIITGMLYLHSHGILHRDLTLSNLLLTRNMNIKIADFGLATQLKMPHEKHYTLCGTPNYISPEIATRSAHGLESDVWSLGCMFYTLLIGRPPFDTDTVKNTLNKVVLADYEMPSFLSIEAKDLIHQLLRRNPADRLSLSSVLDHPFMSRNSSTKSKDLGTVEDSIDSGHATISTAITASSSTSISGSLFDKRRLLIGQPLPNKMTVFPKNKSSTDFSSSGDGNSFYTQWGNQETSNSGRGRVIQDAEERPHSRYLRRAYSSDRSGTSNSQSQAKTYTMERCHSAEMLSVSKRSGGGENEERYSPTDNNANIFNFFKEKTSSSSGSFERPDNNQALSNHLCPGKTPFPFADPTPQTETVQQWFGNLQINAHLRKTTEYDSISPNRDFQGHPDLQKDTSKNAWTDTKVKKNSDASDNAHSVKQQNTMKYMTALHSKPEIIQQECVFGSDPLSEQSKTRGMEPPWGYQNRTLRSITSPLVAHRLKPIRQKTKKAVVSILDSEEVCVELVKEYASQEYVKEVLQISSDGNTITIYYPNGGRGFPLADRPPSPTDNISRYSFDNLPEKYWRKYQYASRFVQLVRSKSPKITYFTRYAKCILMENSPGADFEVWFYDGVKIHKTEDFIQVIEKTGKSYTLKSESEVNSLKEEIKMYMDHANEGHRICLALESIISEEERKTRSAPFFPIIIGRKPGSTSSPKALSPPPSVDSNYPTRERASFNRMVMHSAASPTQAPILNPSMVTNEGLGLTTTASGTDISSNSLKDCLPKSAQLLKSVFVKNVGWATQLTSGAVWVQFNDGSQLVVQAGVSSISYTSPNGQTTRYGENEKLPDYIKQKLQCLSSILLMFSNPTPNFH
Protocol: as §1

[1] = biological target: T3, RSK4(Kin.Dom.1-N-terminal) (Homo sapiens, UniProt Q9UK32)
T3 construct: gene RPS6KA6; Kin.Dom.1-N-terminal
Protocol: as §1

KIT(V559D,V654A) = KIT(V559D,V654A) (Homo sapiens, UniProt P10721, V559D/V654A)
Protocol: as §1

WNK4 = WNK4 (Homo sapiens, UniProt Q96J92)
Protocol: as §1

PIK3CA(I800L) = PIK3CA(I800L) (Homo sapiens, UniProt P42336, I800L)
Protocol: as §1

PIK3CA(M1043I) = PIK3CA(M1043I) (Homo sapiens, UniProt P42336, M1043I)
Protocol: as §1

EPHB3 = EPHB3 (Homo sapiens, UniProt P54753)
Protocol: as §1

CDK7 = CDK7 (Homo sapiens, UniProt P50613)
Protocol: as §1

RAF1 = RAF1 (Homo sapiens, UniProt P04049)
Chain of RAF1 (P04049 whole entry): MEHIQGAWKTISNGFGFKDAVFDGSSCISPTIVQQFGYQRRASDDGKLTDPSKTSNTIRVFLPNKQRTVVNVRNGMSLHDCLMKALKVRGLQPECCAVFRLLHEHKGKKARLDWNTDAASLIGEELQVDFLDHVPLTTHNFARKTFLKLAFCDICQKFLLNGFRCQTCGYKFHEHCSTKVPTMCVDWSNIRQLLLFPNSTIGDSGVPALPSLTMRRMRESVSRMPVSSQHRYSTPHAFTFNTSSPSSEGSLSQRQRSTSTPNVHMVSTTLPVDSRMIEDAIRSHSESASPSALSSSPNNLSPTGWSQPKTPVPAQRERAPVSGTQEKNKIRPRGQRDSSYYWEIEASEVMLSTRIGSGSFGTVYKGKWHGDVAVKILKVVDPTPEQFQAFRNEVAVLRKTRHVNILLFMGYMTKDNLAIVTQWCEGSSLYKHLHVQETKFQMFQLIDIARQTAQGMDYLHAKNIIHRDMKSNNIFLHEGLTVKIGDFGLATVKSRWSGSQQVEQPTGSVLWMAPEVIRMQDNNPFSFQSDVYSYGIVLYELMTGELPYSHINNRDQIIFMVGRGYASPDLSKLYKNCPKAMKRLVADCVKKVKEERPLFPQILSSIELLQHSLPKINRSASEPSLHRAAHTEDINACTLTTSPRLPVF
Protocol: as §1

ERBB4 = ERBB4 (Homo sapiens, UniProt Q15303)
Chain of ERBB4 (Q15303 whole entry): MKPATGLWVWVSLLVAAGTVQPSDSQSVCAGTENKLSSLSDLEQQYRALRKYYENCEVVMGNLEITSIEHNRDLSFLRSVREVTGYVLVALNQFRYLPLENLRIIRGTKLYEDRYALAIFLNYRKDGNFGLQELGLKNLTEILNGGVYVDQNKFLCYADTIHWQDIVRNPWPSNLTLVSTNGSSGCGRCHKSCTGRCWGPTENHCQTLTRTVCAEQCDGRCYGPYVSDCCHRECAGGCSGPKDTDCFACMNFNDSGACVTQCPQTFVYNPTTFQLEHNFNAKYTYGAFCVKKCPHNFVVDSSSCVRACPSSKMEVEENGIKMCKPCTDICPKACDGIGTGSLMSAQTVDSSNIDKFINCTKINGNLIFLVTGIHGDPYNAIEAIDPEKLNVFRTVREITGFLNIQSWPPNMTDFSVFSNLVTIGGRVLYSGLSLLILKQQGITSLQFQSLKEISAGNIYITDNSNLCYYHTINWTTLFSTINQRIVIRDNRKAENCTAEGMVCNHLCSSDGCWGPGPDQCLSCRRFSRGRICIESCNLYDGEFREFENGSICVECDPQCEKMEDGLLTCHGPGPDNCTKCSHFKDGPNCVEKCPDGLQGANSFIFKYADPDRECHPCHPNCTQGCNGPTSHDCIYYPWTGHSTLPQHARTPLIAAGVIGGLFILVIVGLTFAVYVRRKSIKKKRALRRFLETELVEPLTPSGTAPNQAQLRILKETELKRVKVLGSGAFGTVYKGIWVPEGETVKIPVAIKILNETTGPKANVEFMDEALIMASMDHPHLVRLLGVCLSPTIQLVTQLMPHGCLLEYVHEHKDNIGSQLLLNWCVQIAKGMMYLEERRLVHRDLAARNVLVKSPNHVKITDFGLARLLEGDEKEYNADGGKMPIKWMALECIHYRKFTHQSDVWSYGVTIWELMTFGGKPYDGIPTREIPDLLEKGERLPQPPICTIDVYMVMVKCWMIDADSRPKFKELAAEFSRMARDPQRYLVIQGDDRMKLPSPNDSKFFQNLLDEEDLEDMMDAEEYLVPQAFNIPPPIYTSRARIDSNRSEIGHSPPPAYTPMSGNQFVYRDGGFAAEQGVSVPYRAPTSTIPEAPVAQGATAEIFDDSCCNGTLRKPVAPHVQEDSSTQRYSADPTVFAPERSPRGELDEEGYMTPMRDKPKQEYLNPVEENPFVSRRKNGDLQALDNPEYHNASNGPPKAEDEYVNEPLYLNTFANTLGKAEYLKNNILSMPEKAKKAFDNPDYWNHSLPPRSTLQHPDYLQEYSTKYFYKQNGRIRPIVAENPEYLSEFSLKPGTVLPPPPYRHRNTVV
Protocol: as §1

PRKG2 = PRKG2 (Homo sapiens, UniProt Q13237)
Chain of PRKG2 (Q13237 whole entry): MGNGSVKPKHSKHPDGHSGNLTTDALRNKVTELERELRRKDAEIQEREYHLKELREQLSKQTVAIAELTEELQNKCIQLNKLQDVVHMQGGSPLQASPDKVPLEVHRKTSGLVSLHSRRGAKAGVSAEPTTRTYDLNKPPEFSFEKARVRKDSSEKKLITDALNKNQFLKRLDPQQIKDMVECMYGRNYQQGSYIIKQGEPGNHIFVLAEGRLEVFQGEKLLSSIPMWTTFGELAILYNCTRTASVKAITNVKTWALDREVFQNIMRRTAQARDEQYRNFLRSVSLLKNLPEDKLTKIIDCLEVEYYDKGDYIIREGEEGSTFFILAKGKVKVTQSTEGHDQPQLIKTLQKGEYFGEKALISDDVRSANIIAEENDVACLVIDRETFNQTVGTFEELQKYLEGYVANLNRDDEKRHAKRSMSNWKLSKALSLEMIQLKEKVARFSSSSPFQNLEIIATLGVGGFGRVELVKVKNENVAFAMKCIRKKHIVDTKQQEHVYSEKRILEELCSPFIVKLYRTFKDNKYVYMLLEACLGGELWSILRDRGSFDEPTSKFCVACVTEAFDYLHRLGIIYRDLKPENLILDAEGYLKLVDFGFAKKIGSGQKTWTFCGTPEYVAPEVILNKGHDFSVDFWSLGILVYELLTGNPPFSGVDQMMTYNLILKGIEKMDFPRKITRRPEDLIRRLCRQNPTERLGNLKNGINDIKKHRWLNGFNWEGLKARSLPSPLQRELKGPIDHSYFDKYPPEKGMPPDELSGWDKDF
Protocol: as §1

RET(V804M) = RET(V804M) (Homo sapiens, UniProt P07949, V804M)
Protocol: as §1

NEK10 = NEK10 (Homo sapiens, UniProt Q6ZWH5)
Chain of NEK10 (Q6ZWH5 whole entry): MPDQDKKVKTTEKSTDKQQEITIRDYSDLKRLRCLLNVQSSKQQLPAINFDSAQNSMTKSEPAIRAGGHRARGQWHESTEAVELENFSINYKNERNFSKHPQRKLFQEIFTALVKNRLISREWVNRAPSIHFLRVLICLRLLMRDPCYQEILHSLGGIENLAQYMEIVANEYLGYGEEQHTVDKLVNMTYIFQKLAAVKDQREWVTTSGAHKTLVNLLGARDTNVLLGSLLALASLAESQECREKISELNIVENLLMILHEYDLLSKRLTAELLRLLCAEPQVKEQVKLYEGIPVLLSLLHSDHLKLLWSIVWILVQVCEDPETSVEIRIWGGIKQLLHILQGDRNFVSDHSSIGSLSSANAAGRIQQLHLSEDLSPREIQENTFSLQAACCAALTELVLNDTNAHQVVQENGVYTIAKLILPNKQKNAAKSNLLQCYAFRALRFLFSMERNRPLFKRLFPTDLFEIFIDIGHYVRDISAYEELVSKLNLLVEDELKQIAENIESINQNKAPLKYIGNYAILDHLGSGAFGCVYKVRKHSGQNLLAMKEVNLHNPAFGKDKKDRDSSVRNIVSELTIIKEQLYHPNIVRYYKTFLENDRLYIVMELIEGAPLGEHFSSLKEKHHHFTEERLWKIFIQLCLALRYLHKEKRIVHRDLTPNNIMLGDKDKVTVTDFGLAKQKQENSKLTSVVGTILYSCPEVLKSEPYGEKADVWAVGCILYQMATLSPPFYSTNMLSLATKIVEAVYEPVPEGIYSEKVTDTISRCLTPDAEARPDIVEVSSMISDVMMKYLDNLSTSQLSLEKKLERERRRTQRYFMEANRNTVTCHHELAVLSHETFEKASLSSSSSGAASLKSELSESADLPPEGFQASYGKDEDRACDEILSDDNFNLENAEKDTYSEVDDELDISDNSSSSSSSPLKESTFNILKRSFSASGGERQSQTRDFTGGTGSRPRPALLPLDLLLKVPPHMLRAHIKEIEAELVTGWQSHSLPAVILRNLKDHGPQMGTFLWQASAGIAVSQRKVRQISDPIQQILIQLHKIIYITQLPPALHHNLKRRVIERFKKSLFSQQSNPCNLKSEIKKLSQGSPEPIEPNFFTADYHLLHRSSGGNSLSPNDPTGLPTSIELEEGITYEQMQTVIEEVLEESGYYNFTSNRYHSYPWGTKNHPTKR
Protocol: as §1

NEK1 = NEK1 (Homo sapiens, UniProt Q96PY6)
Protocol: as §1

GRK3 = GRK3 (Homo sapiens, UniProt P35626)
Protocol: as §1

HIPK4 = HIPK4 (Homo sapiens, UniProt Q8NE63)
Protocol: as §1

remaining binding at 100 µM (PIK3CA(E545K)): 63% | remaining binding at 100 µM (MAPKAPK2): 77% | remaining binding at 100 µM (CLK1): 94% | remaining binding at 100 µM (DRAK2): 98% | remaining binding at 100 µM (ASK2): 100% | remaining binding at 100 µM (PLK4): 76% | remaining binding at 100 µM [1]: 63% | remaining binding at 100 µM (KIT(V559D,V654A)): 80% | remaining binding at 100 µM (WNK4): 77% | remaining binding at 100 µM (PIK3CA(I800L)): 95% | remaining binding at 100 µM (PIK3CA(M1043I)): 83% | remaining binding at 100 µM (EPHB3): 62% | remaining binding at 100 µM (CDK7): 65% | remaining binding at 100 µM (RAF1): 99% | remaining binding at 100 µM (ERBB4): 81% | remaining binding at 100 µM (PRKG2): 76% | remaining binding at 100 µM (RET(V804M)): 96% | remaining binding at 100 µM (NEK10): 71% | remaining binding at 100 µM (NEK1): 94% | remaining binding at 100 µM (GRK3): 58% | remaining binding at 100 µM (HIPK4): 66%
Compound: C=C(C)[C@H]1CC=C(C)C(=O)C1 [S-carvone]
